Consider one molecule from ChEMBL document CHEMBL5500419, “Discovery of GPR84 Fluorogenic Probes Based on a Novel Antagonist for GPR84 Bioimaging” (J Med Chem, 2024).

For orientation: IC50 means the point on the concentration scale where inhibition reaches its midpoint. A high value points to weaker potency in that assay.

This test has as its target G-protein coupled receptor 84 (Homo sapiens, UniProt Q9NQS5).

Sequence of G-protein coupled receptor 84 (Q9NQS5 whole entry): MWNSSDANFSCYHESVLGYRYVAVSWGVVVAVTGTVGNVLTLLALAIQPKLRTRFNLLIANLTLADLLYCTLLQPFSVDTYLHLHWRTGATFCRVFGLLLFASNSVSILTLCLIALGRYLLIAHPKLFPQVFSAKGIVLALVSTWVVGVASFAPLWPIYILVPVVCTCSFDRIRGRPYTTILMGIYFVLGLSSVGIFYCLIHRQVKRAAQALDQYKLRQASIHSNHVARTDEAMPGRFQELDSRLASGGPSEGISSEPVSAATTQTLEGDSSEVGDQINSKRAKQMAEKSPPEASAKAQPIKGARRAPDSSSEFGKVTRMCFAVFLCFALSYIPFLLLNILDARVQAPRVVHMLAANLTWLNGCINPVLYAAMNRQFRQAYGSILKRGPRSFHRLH
Description: Antagonist activity at human GPR84 expressed in HEK293 cells co-expressing Galpha16 assessed as inhibition of 6-OAU-induced calcium response

Regarding `Cc1cc2ccccc2c2c1OP(=O)(O)Oc1c(C)cc3ccccc3c1-2`, the IC50 was more than 100 µM.
